This passage reports inhibition results from publication PMC12518037, “Design, Synthesis, Biological Evaluation, and In Silico Study of Tetrahydropyridines as Prospective Monoamine Oxidase Inhibitors” (ChemistryOpen, 2025).

One assay concerns the target T1, MAO‐A (Homo sapiens, UniProt P21397).
T1 sequence (P21397 1-527): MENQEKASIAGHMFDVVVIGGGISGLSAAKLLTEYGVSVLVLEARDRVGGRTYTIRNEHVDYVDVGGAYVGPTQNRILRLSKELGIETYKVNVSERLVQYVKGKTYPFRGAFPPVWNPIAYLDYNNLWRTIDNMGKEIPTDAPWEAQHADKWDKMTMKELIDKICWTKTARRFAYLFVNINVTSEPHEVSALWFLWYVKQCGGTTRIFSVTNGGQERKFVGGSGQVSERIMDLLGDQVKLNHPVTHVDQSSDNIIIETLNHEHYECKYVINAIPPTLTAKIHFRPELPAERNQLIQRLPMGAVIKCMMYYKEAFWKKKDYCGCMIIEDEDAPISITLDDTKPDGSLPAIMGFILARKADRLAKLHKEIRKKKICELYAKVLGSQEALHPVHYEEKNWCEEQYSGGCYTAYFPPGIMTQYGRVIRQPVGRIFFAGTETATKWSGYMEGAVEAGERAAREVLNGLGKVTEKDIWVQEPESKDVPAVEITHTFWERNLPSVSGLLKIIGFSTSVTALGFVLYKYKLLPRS
The assay is described as follows: MAO-A inhibition assay (Amplex red fluorescence, tyramine substrate). The class given is biochemical. As to conditions: percent inhibition observed at 100 μM. The procedure:
(§1) The range of compounds used in the study started at 1 mM for the initial screening to determine the percentage of inhibition. […] For 10 minutes, the reaction mixture was incubated at 37 °C. Tyramine, a substrate with a final concentration of 0.30 mM, was added to each well after 15 minutes, followed by 10 μL of Amplex red, a fluorogenic substrate. The FLUOstar Omega fluorescence plate reader (BMG Labtech GmbH, Ortenberg, Germany) was used to detect the change in fluorescence.

The next assay has as its target T2, MAO‐B (Homo sapiens, UniProt P27338).
T2 sequence (P27338 2-520): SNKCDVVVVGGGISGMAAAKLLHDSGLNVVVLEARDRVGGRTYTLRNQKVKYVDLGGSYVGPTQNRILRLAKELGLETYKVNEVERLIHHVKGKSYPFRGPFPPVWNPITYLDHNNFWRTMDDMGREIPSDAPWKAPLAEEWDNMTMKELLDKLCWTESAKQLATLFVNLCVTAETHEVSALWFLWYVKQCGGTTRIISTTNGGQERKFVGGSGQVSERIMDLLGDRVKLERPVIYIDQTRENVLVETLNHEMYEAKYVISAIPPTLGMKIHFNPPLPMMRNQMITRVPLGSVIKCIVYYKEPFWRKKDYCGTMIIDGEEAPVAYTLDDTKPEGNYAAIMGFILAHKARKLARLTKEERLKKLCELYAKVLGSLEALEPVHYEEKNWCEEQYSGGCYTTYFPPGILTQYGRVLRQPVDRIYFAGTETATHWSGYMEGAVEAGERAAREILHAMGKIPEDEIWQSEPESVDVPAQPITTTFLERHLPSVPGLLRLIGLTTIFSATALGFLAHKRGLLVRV
As to the kind of experiment: MAO-B inhibition assay (Amplex red fluorescence, tyramine substrate). It counts as biochemical. As to conditions: percent inhibition observed at 100 μM. The method, then: as §1

On to `CCOC(=O)C1=C(Nc2ccc(Cl)cc2)CC(c2ccccc2)N(c2ccc(Cl)cc2)C1c1ccccc1` (centres unmarked) [4 b, Ethyl 1‐(4‐chlorophenyl)‐4‐(4‐chlorophenylamino)‐2,6‐diphenyl‐1,2,5,6‐tetrahydropyridine‐3‐carboxylate], for which, at MAO‐A, the inhibition (as a rule, the relative decrease from the control value, in per cent) at 100 µM stood at 40%.
As to `CCOC(=O)C1=C(Nc2ccc(Br)cc2)CC(c2ccc(Cl)cc2)N(c2ccc(Br)cc2)C1c1ccc(Cl)cc1` (centres unmarked) [4 h, Ethyl 1‐(4‐bromophenyl)‐4‐(4‐bromophenylamino)‐2,6‐bis(4‐chlorophenyl)‐1,2,5,6‐tetrahydropyridine‐3‐carboxylate], the inhibition at 100 µM on MAO‐A was below 50%.
Consider `CCOC(=O)C1=C(Nc2ccc(OC)cc2)CC(c2ccc(Cl)cc2)N(c2ccc(OC)cc2)C1c1ccc(Cl)cc1` (centres unmarked) [4 i, Ethyl 2,6‐bis(4‐chlorophenyl)‐1‐(4‐methoxyphenyl)‐4‐(4‐methoxyphenylamino)‐1,2,5,6‐tetrahydropyridine‐3‐carboxylate], for which the inhibition at 100 µM against MAO‐A and against MAO‐B was below 50% in each case.
For the compound `CCOC(=O)C1=C(Nc2ccc(C)cc2)CC(c2ccc(Cl)cc2)N(c2ccc(C)cc2)C1c1ccc(Cl)cc1` (centres unmarked) [4 j, Ethyl 4‐(p–toluidino)‐2,6‐bis(4‐chlorophenyl)‐1‐p–tolyl‐1,2,5,6‐tetrahydropyridine‐3‐carboxylate], the inhibition at 100 µM at MAO‐A and against MAO‐B was below 50% each time.
As for `CCOC(=O)C1=C(Nc2ccc(Cl)cc2)CC(c2ccc([N+](=O)[O-])cc2)N(c2ccc(Cl)cc2)C1c1ccc([N+](=O)[O-])cc1` (centres unmarked) [4 l, Ethyl 1‐(4‐chlorophenyl)‐4‐(4‐chlorophenylamino)‐2,6‐bis(4‐nitrophenyl)‐1,2,5,6‐tetrahydropyridine‐3‐carboxylate], testing at 100 µM on MAO‐B gave an inhibition of 23%.
The same measure, in the same setting: the figure for `CCOC(=O)C1=C(Nc2ccc(Br)cc2)CC(c2ccc([N+](=O)[O-])cc2)N(c2ccc(Br)cc2)C1c1ccc([N+](=O)[O-])cc1` (centres unmarked) [4 m, Ethyl 1‐(4‐bromophenyl)‐4‐(4‐bromophenylamino)‐2,6‐bis(4‐nitrophenyl)‐1,2,5,6‐tetrahydropyridine‐3‐carboxylate] is 46%.
